Assay results from patent US20200216416A1, “QUINOLINE COMPOUNDS AS INHIBITORS OF TAM AND MET KINASES” (Array BioPharma Inc., priority 2019, published 2020).

Assays:
[1] = target: T1, His-tagged recombinant human AXL cytoplasmic domain (Homo sapiens, UniProt P30530); experiment: AXL Enzyme Assay (LanthaScreen Eu Kinase Binding); settings: averaged IC50; 60-minute incubation at 22° C.; TR-FRET
T1 construct: His-tagged recombinant human AXL cytoplasmic domain
T1 sequence (P30530 473-894 limits assumed): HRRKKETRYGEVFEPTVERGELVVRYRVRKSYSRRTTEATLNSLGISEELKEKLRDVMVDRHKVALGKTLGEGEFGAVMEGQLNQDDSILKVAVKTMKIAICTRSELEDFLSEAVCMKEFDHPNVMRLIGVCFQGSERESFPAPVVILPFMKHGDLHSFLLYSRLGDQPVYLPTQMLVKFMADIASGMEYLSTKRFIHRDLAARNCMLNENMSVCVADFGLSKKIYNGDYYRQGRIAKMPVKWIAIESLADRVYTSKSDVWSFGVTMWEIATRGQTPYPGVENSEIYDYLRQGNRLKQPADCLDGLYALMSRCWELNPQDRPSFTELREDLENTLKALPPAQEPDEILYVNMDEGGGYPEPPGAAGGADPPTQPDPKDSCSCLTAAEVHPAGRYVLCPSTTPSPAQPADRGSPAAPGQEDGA
Description: Compounds disclosed herein were screened for their ability to inhibit AXL kinase using Invitrogen's LanthaScreen™Eu Kinase Binding technology. His-tagged recombinant human AXL cytoplasmic domain was incubated with 20 nM Alexa-Fluor® Tracer 236 (PR9078A), 2 nM biotinylated anti-His (Cat. No. M4408), and 2 nM europium-labeled Streptavidin (Cat. No. PV5899) along with test compound in a buffer consisting of 25 mM HEPES, pH 7.4, 10 mM MgCl2, 0.01% Triton X-100, and 2% DMSO. Compounds were typically prepared in a threefold serial dilution in DMSO and added to the assay to give the appropriate final concentration. After a 60-minute incubation at 22° C., the reaction was measured using a PerkinElmer EnVision multimode plate reader via TR-FRET dual wavelength detection, and the percent of control (POC) was calculated using a ratiometric emission factor. […] The POC values are fit to a 4 parameter logistic curve and the IC50 value is point where the curve crosses 50 POC.

human MET kinase L1195V = target: T2, human MET kinase L1195V (Homo sapiens, UniProt P08581, L1195V); experiment: c-Met Enzyme Assay, L1195V mutant; format: binding; settings: averaged IC50; L1195V 10 nM; 60-minute incubation at 22° C.
T2 construct: GST-tagged recombinant human MET kinase domain; purchased Signal Chem
T2 sequence (P08581 1078-1345 L1195V limits assumed): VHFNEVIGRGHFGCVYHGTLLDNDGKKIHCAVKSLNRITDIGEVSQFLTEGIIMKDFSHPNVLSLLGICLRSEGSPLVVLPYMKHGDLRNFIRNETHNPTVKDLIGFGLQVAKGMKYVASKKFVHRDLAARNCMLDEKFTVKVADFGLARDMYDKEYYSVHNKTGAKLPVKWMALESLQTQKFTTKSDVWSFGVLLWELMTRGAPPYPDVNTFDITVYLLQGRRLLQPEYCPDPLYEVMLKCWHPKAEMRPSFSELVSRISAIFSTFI
Description: The affinity of compound binding to wild type and mutant human MET kinases was measured using Invitrogen's LanthaScreen™ Eu Kinase Binding technology. Briefly, GST-tagged recombinant human MET kinase domain from Signal Chem (see Table 8 below for concentration in assay) was incubated with 50 nM Alexa-Fluor® Tracer 236 (Invitrogen Cat No. PR9078A) and 2 nM Europium-anti-GST (Invitrogen Cat. No. A15116) along with test compound in a buffer consisting of 25 mM HEPES, pH 7.4, 10 mM MgCl2, 0.01% Triton X-100, 1mM DTT, and 2% DMSO. Compounds were typically prepared in a three-fold serial dilution in DMSO and added to the assay to give the appropriate final concentration. After a 60-minute incubation at 22° C., the reaction was measured using a PerkinElmer EnVision multimode plate reader via TR-FRET dual wavelength detection, and the percent of control (POC) calculated using a ratiometric emission factor. […] The POC values were fit to a 4 parameter logistic curve and the IC50 value is point where the curve crosses 50 POC.

## COc1cc(-c2cn(C(C)C)cc(C(=O)Nc3ccc(Oc4ccnc5cc(OC)c(OC)cc45)cn3)c2=O)ccc1F [Example 20, N-(5-((6,7-dimethoxyquinolin-4yl)oxy)pyridin-2-yl)-5-(4-fluoro-3-methoxyphenyl)-1-isopropyl-4-oxo-1,4-dihydropyridine-3-carboxamide]
[1]
  IC50: 3 nM
Human MET kinase L1195V
  IC50: 58.1 nM

## COc1cc2nccc(Oc3ccc(NC(=O)c4cn(C(C)C)cc(-c5ccc(F)c(Cl)c5)c4=O)nc3)c2cc1OC [Example 21, 5-(3-chloro-4-fluorophenyl)-N-(5-((6,7-dimethoxyquinolin-4-yl)oxy)pyridin-2-yl)-1-isopropyl-4-oxo-1,4-dihydropyridine-3-carboxamide]
[1]
  IC50: 10 nM
Human MET kinase L1195V
  IC50: 77.7 nM

## CNC(=O)Cn1cc(C(=O)Nc2ccc(Oc3ccnc4cc(OC)c(OC)cc34)cn2)c(=O)c(-c2ccc(F)cc2)c1 [Example 22]
[1]
  IC50: 2 nM
Human MET kinase L1195V
  IC50: 17.7 nM

## COc1cc2nccc(Oc3ccc(NC(=O)c4cn(CC(=O)N(C)C)cc(-c5ccc(F)cc5)c4=O)nc3)c2cc1OC [Example 23, N-(5-((6,7-dimethoxyquinolin-4yl)oxy)pyridin-2-yl)-1-(2-(dimethylamino)-2-oxoethyl)-5-(4-fluorophenyl)-4-oxo-1,4-dihydropyridine-3-carboxamide]
[1]
  IC50: 1 nM
Human MET kinase L1195V
  IC50: 39.6 nM

## COc1cc2nccc(Oc3ccc(NC(=O)c4cn(CC(=O)N(C)C)cc(-c5ccc(F)c(F)c5)c4=O)nc3)c2cc1OC [Example 24, 5-(3,4-difluorophenyl)-N-(5-((6,7-dimethoxyquinolin-4-yl)oxy)pyridin-2-yl)-1-(2-(dimethylamino)-2-oxoethyl)-4-oxo-1,4-dihydropyridine-3-carboxamide]
[1]
  IC50: 1 nM
Human MET kinase L1195V
  IC50: 92 nM

## COc1cc2nccc(Oc3ccc(NC(=O)c4cn(CC(=O)N(C)C)cc(-c5ccc(Cl)cc5)c4=O)nc3)c2cc1OC [Example 25]
[1]
  IC50: 2 nM
Human MET kinase L1195V
  IC50: 18.7 nM

## COc1cc2nccc(Oc3ccc(NC(=O)c4cn(C(C)C)c(C)c(-c5ccc(F)cc5)c4=O)nc3)c2cc1OC [Example 27, N-(5-((6,7-dimethoxyquinolin-4yl)oxy)pyridin-2-yl)-5-(4-fluorophenyl)-1-isopropyl-6-methyl-4-oxo-1,4-dihydropyridine-3-carboxamide]
[1]
  IC50: 1 nM
Human MET kinase L1195V
  IC50: 2.9 nM

## COc1cc2nccc(Oc3ccc(NC(=O)c4cn(C(C)C)c(C)c(-c5ccc(F)c(F)c5)c4=O)nc3)c2cc1OC [Example 28, 5-(3,4-difluorophenyl)-N-(5-((6,7-dimethoxyquinolin-4yl)oxy)pyridin-2-yl)-1-isopropyl-6-methyl-4-oxo-1,4-dihydropyridine-3-carboxamide]
[1]
  IC50: 1 nM
Human MET kinase L1195V
  IC50: 4 nM

## CCc1c(-c2ccc(F)cc2)c(=O)c(C(=O)Nc2ccc(Oc3ccnc4cc(OC)c(OC)cc34)cn2)cn1C(C)C [Example 29, N-(5-((6,7-dimethoxyquinolin-4yl)oxy)pyridin-2-yl)-6-ethyl-5-(4-fluorophenyl)-1-isopropyl-4-oxo-1,4-dihydropyridine-3-carboxamide]
[1]
  IC50: 1 nM
Human MET kinase L1195V
  IC50: 5.1 nM

## COc1ccc(-c2cn(C(C)C)cc(C(=O)Nc3ccc(Oc4ccnc5cc(OC)c(OC)cc45)cn3)c2=O)cc1 [Example 30, N-(5-((6,7-dimethoxyquinolin-4yl)oxy)pyridin-2-yl)-1-isopropyl-5-(4-methoxyphenyl)-4-oxo-1,4-dihydropyridine-3-carboxamide]
[1]
  IC50: 2 nM
Human MET kinase L1195V
  IC50: 39.9 nM

## COc1ccc(-c2cn(C(C)C)cc(C(=O)Nc3ccc(Oc4ccnc5cc(OC)c(OC)cc45)cn3)c2=O)c(F)c1 [Example 31, N-(5-((6,7-dimethoxyquinolin-4yl)oxy)pyridin-2-yl)-5-(2-fluoro-4-methoxyphenyl)-1-isopropyl-4-oxo-1,4-dihydropyridine-3-carboxamide]
[1]
  IC50: 1 nM
Human MET kinase L1195V
  IC50: 59.1 nM

## COc1cc2nccc(Oc3ccc(NC(=O)c4cn(C(C)C)cc(-c5ccc(F)cc5OC)c4=O)nc3)c2cc1OC [Example 32, N-(5-((6,7-dimethoxyquinolin-4yl)oxy)pyridin-2-yl)-5-(4-fluoro-2-methoxyphenyl)-1-isopropyl-4-oxo-1,4-dihydropyridine-3-carboxamide]
[1]
  IC50: 2 nM
Human MET kinase L1195V
  IC50: 44.8 nM

## COc1ccc2nccc(Oc3ccc(NC(=O)c4cn(C(C)C)c(C)c(-c5ccc(F)cc5)c4=O)nc3)c2c1 [Example 33, 5-(4-fluorophenyl)-1-isopropyl-N-(5-((6-methoxyquinolin-4-yl)oxy)pyridin-2-yl)-6-methyl-4-oxo-1,4-dihydropyridine-3-carboxamide]
[1]
  IC50: 1 nM
Human MET kinase L1195V
  IC50: 20.2 nM

## COc1cc2nccc(Oc3ccc(NC(=O)c4cn(CCC(C)C)cc(-c5ccc(F)cc5)c4=O)nc3)c2cc1OC [Example 34, N-(5-((6,7-dimethoxyquinolin-4yl)oxy)pyridin-2-yl)-5-(4-fluorophenyl)-1-isopentyl-4-oxo-1,4-dihydropyridine-3-carboxamide]
[1]
  IC50: 2 nM
Human MET kinase L1195V
  IC50: 11.2 nM

## COc1cc2nccc(Oc3ccc(NC(=O)c4cn(CCC(C)C)cc(-c5ccc(F)cc5F)c4=O)nc3)c2cc1OC [Example 36, 5-(2,4-difluorophenyl)-N-(5-((6,7-dimethoxyquinolin-4yl)oxy)pyridin-2-yl)-1-isopentyl-4-oxo-1,4-dihydropyridine-3-carboxamide]
[1]
  IC50: 3 nM
Human MET kinase L1195V
  IC50: 14.4 nM

## COc1cc2nccc(Oc3ccc(NC(=O)c4cn(CCC(C)C)cc(-c5ccc(Cl)cc5)c4=O)nc3)c2cc1OC [Example 37]
[1]
  IC50: 5 nM
Human MET kinase L1195V
  IC50: 23.2 nM

## CCn1cc(C(=O)Nc2ccc(Oc3ccnc4ccc(OC)cc34)cn2)c(=O)c(-c2ccc(F)cc2)c1 [Example 39, 1-ethyl-5-(4-fluorophenyl)-N-(5-((6-methoxyquinolin-4-yl)oxy)pyridin-2-yl)-4-oxo-1,4-dihydropyridine-3-carboxamide]
[1]
  IC50: 3 nM
Human MET kinase L1195V
  IC50: 508 nM

## COc1ccc2nccc(Oc3ccc(NC(=O)c4cn(C)cc(-c5ccc(F)cc5)c4=O)nc3)c2c1 [Example 41, 5-(4-fluorophenyl)-N-(5-((6-methoxyquinolin-4yl)oxy)pyridin-2-yl)-1-methyl-4-oxo-1,4-dihydropyridine-3-carboxamide]
[1]
  IC50: 5 nM
Human MET kinase L1195V
  IC50: 2220 nM

## COc1cc2nccc(Oc3ccc(NC(=O)c4cn(CCN(C)C)cc(-c5ccc(Cl)cc5)c4=O)nc3)c2cc1OC [Example 42]
[1]
  IC50: 2 nM
Human MET kinase L1195V
  IC50: 8.2 nM

## COc1cc2nccc(Oc3ccc(NC(=O)c4cn(CCN(C)C)cc(-c5ccc(F)c(F)c5)c4=O)nc3)c2cc1OC [Example 43, 5-(3,4-difluorophenyl)-N-(5-((6,7-dimethoxyquinolin-4-yl)oxy)pyridin-2-yl)-1-]
[1]
  IC50: 2 nM
Human MET kinase L1195V
  IC50: 14.2 nM

## COc1cc2nccc(Oc3ccc(NC(=O)c4cn(CCN(C)C)cc(-c5ccc(F)cc5F)c4=O)nc3)c2cc1OC [Example 44, 5-(2,4-difluorophenyl)-N-(5-((6,7-dimethoxyquinolin-4-yl)oxy)pyridin-2-yl)-1-(2-(dimethylamino)ethyl)-4-oxo-1,4-dihydropyridine-3-carboxamide]
[1]
  IC50: 2 nM
Human MET kinase L1195V
  IC50: 18.9 nM

## COc1cc2nccc(Oc3ccc(NC(=O)c4cn(C)c(C(C)C)c(-c5ccc(F)cc5)c4=O)nc3)c2cc1OC [Example 45, N-(5-((6,7-dimethoxyquinolin-4-yl)oxy)pyridin-2-yl)-5-(4-fluorophenyl)-6-isopropyl-1-methyl-4-oxo-1,4-dihydropyridine-3-carboxamide]
[1]
  IC50: 5 nM
Human MET kinase L1195V
  IC50: 41.4 nM

## COc1cc2nccc(Oc3ccc(NC(=O)c4cn(CCN(C)C)cc(-c5ccc(F)cc5)c4=O)nc3)c2cc1OC [Example 46]
[1]
  IC50: 1 nM
Human MET kinase L1195V
  IC50: 21.9 nM

## COc1ccc2nccc(Oc3ccc(NC(=O)c4cn(CCN(C)C)cc(-c5ccc(F)cc5)c4=O)nc3)c2c1 [Example 47]
[1]
  IC50: 1 nM
Human MET kinase L1195V
  IC50: 414 nM
